Here are results for 20 compounds from patent US10150766B2, “P2X7 modulators” (Jansssen Pharmaceutica NV, priority 2014, dated 2018).

pIC50: −log10 of the molar value. Where “and” joins values, the source holds several entries; their conditions need not be identical. Identical values can stand only once. Like-named read-outs stand apart in the source and are kept apart here.

Assay [1] addresses T1, P2X7 (Homo sapiens (Human), UniProt Q99572). As to the kind of experiment: P2X7 antagonism in human peripheral blood mononuclear cells (PBMCs), IL-1β release (LPS + Bz-ATP, ELISA). It is filed as cell-based. Conditions: P2X7, 10 μM test compound, LPS 30 ng/ml + Bz-ATP 0.5 mM, read-out: PBMC @10 μM (% control). Here is the method: (§1) P2X7 Antagonism in Human Peripheral Blood Mononuclear Cells (PBMCs) and Human Whole Blood.
(§2) Human blood was collected using a blood donor program. PBMCs were isolated from blood using a Ficoll density gradient technique. Briefly, blood was laid on Ficoll solution and centrifuged at ROOM TEMPERATURE for 20 minutes at 2000 rpm. The buffy layer (between red blood cells and plasma) was carefully collected by aspiration, washed with PBS and centrifuged again at 1500 rpm for 15 minutes. The resulting cell pellet was washed and plated on 96 well-plates for experiments. For the Human Whole Blood experiments, 150 μl of human blood was plated on 96 well-plates. Lipopolysaccharide (LPS) (30 ng/ml) was added to each well and incubated for 1 hour. Test compounds were then added and incubated for 30 minutes. The P2X7 agonist, 2′(3′)-O-(4-benzoylbenzoyl) adenosine 5′-triphosphate (Bz-ATP) was then added at a final concentration of 0.5 mM (PBMC) or 1 mM (blood). Cells were incubated for an additional 1.5 hours. At that point, supernatant was collected and stored for IL-1β assay using manufacturer's protocol for enzyme-linked immunosorbant assay (ELISA). Data was expressed as percent control, where control is defined as the difference in IL-1β release in LPS+Bz-ATP samples and LPS only samples. Data was plotted as response (% control) versus concentration to generate IC50 values. […] Data are analyzed and graphed on Graphpad Prism 5. For analysis, each concentration point is averaged from triplicate values and the averaged values are plotted on Graphpad Prism. The IC50 for each compound is then uploaded into 3DX.
(An ELISA detects its analyte on a solid surface through an enzyme-linked reagent.)

For assay [2], the target named is T1, P2X7. The experiment in a line: P2X7 antagonism in human whole blood, IL-1β release (LPS + Bz-ATP, ELISA). The assay is classed as cell-based. Conditions: LPS 30 ng/ml + Bz-ATP 1 mM; for IC50: Human Whole Blood IC50 (μM). Here is the method: as §1, §2
In assay [3] the target is rat P2X7 (Rattus norvegicus (Rat), UniProt Q64663). As to the kind of experiment: P2X7 antagonism in recombinant rat P2X7 cells (column headed P2X7 Rat IC50). The assay is classed as binding. The protocol: The in vitro affinity of the compounds of the invention for the rat and human P2X7 receptor was determined using a human peripheral blood mononuclear cells (PBMCs), a human whole blood assay, a Ca^2+ flux and radioligand binding assay in recombinant human P2X7 cells and recombinant rat P2X7 cells. […] The data represented in Tables 2 may represent a value from a single determination or when the experiment was run more than once, the data represents the average from between 2-12 runs.
rat P2X7, sequence (Q64663 whole entry): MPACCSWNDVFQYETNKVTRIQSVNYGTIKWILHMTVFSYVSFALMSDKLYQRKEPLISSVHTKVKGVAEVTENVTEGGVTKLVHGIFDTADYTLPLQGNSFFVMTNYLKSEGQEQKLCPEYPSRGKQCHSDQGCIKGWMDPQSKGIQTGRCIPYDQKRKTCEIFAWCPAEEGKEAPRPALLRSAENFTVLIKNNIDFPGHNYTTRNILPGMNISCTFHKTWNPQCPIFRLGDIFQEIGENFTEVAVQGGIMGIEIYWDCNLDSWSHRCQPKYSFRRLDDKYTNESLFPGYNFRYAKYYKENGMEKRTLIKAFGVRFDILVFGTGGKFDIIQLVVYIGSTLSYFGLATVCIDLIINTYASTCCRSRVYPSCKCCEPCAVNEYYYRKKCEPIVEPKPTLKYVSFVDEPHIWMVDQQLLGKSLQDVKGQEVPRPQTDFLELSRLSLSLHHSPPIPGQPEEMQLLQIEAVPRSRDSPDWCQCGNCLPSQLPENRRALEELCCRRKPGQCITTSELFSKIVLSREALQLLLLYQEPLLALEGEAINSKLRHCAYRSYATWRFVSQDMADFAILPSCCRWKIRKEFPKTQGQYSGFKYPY
P2X7 Antagonism in Recombinant Human P2X7 Cells or Recombinant Rat P2X7 Cells: […]

T1 sequence (Q99572 whole entry): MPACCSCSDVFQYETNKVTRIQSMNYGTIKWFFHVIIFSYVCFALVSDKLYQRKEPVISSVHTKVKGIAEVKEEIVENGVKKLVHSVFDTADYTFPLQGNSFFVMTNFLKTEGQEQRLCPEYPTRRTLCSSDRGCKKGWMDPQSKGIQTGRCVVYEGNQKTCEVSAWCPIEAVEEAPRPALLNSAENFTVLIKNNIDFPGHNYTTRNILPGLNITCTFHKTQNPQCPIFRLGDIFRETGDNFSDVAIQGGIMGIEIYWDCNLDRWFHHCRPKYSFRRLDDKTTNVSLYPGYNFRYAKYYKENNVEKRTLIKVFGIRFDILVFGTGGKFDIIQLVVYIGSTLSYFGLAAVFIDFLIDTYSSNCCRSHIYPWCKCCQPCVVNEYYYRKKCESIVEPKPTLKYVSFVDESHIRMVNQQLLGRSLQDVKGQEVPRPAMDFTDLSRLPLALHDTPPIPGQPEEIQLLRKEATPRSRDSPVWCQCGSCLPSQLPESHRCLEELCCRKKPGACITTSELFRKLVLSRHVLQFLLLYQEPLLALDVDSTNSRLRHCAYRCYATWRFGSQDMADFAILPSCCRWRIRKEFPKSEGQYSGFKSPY

A word on the pIC50: it is the negative decadic logarithm of the IC50, by convention in mol/L. As for `Cc1nc(-c2cnn(C)c2)c2c(n1)[C@H]1CCC[C@@H](C2)N1C(=O)c1ccc(F)c(Cl)c1Cl` [Example 33, (2,3-dichloro-4-fluorophenyl)((6S,10R)-2-methyl-4-(1-methyl-1H-pyrazol-4-yl)-5,6,7,8,9,10-hexahydro-6,10-epiminocycloocta[d]pyrimidin-11-yl)methanone], the remaining activity at 10 µM in assay [1] stood at 1.2%. Moreover, the pIC50 in assay [2] (read-out: Human Whole Blood IC50) was 5.87; in assay [3] it was less than 5.00.
The term IC50 denotes the concentration at which inhibition is half-maximal. `Cc1nc(-c2ccc(F)cc2)c2c(n1)[C@@H]1CCC[C@H](C2)N1C(=O)c1cccc(C(F)(F)F)c1Cl` [Example 13, (2-chloro-3-(trifluoromethyl)phenyl)((6R,10S)-4-(4-fluorophenyl)-2-methyl-5,6,7,8,9,10-hexahydro-6,10-epiminocycloocta[d]pyrimidin-11-yl)methanone]: the remaining activity at 10 µM in assay [1] stood at 22.2%. The IC50 in assay [2] was 5.08 µM. Further, the pIC50 in assay [3] is 7.05.
Turning to `Cc1nc(-c2cnn(C)c2)c2c(n1)[C@H]1CCC[C@@H](C2)N1C(=O)c1cccc(C(F)(F)F)c1Cl` [Example 30, (2-chloro-3-(trifluoromethyl)phenyl)((6S,10R)-2-methyl-4-(1-methyl-1H-pyrazol-4-yl)-5,6,7,8,9,10-hexahydro-6,10-epiminocycloocta[d]pyrimidin-11-yl)methanone], in assay [1], the remaining activity at 10 µM was -3.7%. Also, the pIC50 in assay [3] is less than 5.00.
The matching figures for `Cc1nc(-c2ccccn2)c2c(n1)[C@H]1CCC[C@@H](C2)N1C(=O)c1ccnc(C(F)(F)F)c1Cl` [Example 61, (3-chloro-2-(trifluoromethyl)pyridin-4-yl)((6S,10R)-2-methyl-4-(pyridin-2-yl)-5,6,7,8,9,10-hexahydro-6,10-epiminocycloocta[d]pyrimidin-11-yl)methanone]: 0.4% and 7.34.
For `Cc1nc(-c2ccn[nH]2)c2c(n1)[C@@H]1CCC[C@H](C2)N1C(=O)c1ccc(Cl)cc1Cl` [Example 5, (2,4-dichlorophenyl)((6R,10S)-2-methyl-4-(1H-pyrazol-5-yl)-5,6,7,8,9,10-hexahydro-6,10-epiminocycloocta[d]pyrimidin-11-yl)methanone], the remaining activity at 10 µM in assay [1] was found to be 76.5%. In addition, the IC50 in assay [2] stood at 2 µM.
For `Cc1nc(-c2ccc(F)cc2)c2c(n1)[C@H]1CCC[C@@H](C2)N1C(=O)c1ccc(Cl)c(F)c1Cl` [Example 54, (2,4-dichloro-3-fluorophenyl)((6S,10R)-4-(4-fluorophenyl)-2-methyl-5,6,7,8,9,10-hexahydro-6,10-epiminocycloocta[d]pyrimidin-11-yl)methanone], the remaining activity at 10 µM in assay [1] came to 9.3%. Also, the pIC50 in assay [3] is 6.43.
The matching figures for `Cc1nc(-c2ccn[nH]2)c2c(n1)[C@@H]1CCC[C@H](C2)N1C(=O)c1cccc(C(F)(F)F)c1Cl` [Example 3, (2-chloro-3-(trifluoromethyl)phenyl)((6R,10S)-2-methyl-4-(1H-pyrazol-5-yl)-5,6,7,8,9,10-hexahydro-6,10-epiminocycloocta[d]pyrimidin-11-yl)methanone]: 22% and 6.09.
The matching figures for `Cc1nc(-c2ccn[nH]2)c2c(n1)[C@@H]1CCC[C@H](C2)N1C(=O)c1cccc(C(F)(F)F)c1F` [Example 8, (2-fluoro-3-(trifluoromethyl)phenyl)((6R,10S)-2-methyl-4-(1H-pyrazol-5-yl)-5,6,7,8,9,10-hexahydro-6,10-epiminocycloocta[d]pyrimidin-11-yl)methanone]: 31.9% and 6.22.
The matching figures for `Cc1nc(-c2cnccn2)c2c(n1)[C@H]1CCC[C@@H](C2)N1C(=O)c1ccnc(C(F)(F)F)c1Cl` [Example 49, (3-chloro-2-(trifluoromethyl)pyridin-4-yl)((6S,10R)-2-methyl-4-(pyrazin-2-yl)-5,6,7,8,9,10-hexahydro-6,10-epiminocycloocta[d]pyrimidin-11-yl)methanone]: -1.9% and 6.86.
As for `Cc1nc(-c2cnn(C)c2)c2c(n1)[C@H]1CCC[C@@H](C2)N1C(=O)c1ccc(Cl)cc1Cl` [Example 40, (2,4-dichlorophenyl)((6S,10R)-2-methyl-4-(1-methyl-1H-pyrazol-4-yl)-5,6,7,8,9,10-hexahydro-6,10-epiminocycloocta[d]pyrimidin-11-yl)methanone], in assay [1], the remaining activity at 10 µM is 76.2%.
On the same count and under the same terms, with `Cc1nc(-c2cnn(C)c2)c2c(n1)[C@H]1CCC[C@@H](C2)N1C(=O)c1ccc(F)cc1Cl` [Example 36, (2-chloro-4-fluorophenyl)((6S,10R)-2-methyl-4-(1-methyl-1H-pyrazol-4-yl)-5,6,7,8,9,10-hexahydro-6,10-epiminocycloocta[d]pyrimidin-11-yl)methanone] the figure was 73.8%.
Turning to `Cc1nc(-c2ccc(F)cc2)c2c(n1)[C@@H]1CCC[C@H](C2)N1C(=O)c1ccc(F)c(Cl)c1Cl` [Example 17, (2,3-dichloro-4-fluorophenyl)((6R,10S)-4-(4-fluorophenyl)-2-methyl-5,6,7,8,9,10-hexahydro-6,10-epiminocycloocta[d]pyrimidin-11-yl)methanone], the remaining activity at 10 µM in assay [1] stood at 13.3%. For the same compound, in assay [2], the IC50 came out at 2.02 µM.
Regarding `Cc1nc(-c2ccc(F)cc2)c2c(n1)[C@@H]1CCC[C@H](C2)N1C(=O)c1ccnc(C(F)(F)F)c1Cl` [Example 18, (3-chloro-2-(trifluoromethyl)pyridin-4-yl)((6R,10S)-4-(4-fluorophenyl)-2-methyl-5,6,7,8,9,10-hexahydro-6,10-epiminocycloocta[d]pyrimidin-11-yl)methanone], the remaining activity at 10 µM in assay [1] amounted to 28.9%. The negative logarithm of the IC50 (pIC50) in assay [3] is less than 5.00.
Regarding `Cc1nc(-c2ccc(F)cc2)c2c(n1)[C@@H]1CCC[C@H](C2)N1C(=O)c1ccc(Cl)cc1Cl` [Example 15, (2,4-dichlorophenyl)((6R,10S)-4-(4-fluorophenyl)-2-methyl-5,6,7,8,9,10-hexahydro-6,10-epiminocycloocta[d]pyrimidin-11-yl)methanone], the concentration for half-maximal inhibition (IC50) in assay [2] was 5.05 µM and 13.3 µM.
For `Cc1nc(-c2ncccn2)c2c(n1)[C@H]1CCC[C@@H](C2)N1C(=O)c1cccc(C(F)(F)F)c1C` [Example 43, (2-methyl-3-(trifluoromethyl)phenyl)((6S,10R)-2-methyl-4-(pyrimidin-2-yl)-5,6,7,8,9,10-hexahydro-6,10-epiminocycloocta[d]pyrimidin-11-yl)methanone], the remaining activity at 10 µM in assay [1] turned out to be 15%. Moreover, the pIC50 in assay [3] was 7.38.
The corresponding values for `Cc1nc(-c2ccc(F)cc2)c2c(n1)[C@H]1CCC[C@@H](C2)N1C(=O)c1ccnc(C(F)(F)F)c1Cl` [Example 52, (3-chloro-2-(trifluoromethyl)pyridin-4-yl)((6S,10R)-4-(4-fluorophenyl)-2-methyl-5,6,7,8,9,10-hexahydro-6,10-epiminocycloocta[d]pyrimidin-11-yl)methanone] are -1.2% and 7.09.
With `Cc1nc(-c2ccn[nH]2)c2c(n1)[C@H]1CCC[C@@H](C2)N1C(=O)c1cccc(C(F)(F)F)c1Cl` [Example 19, (2-chloro-3-(trifluoromethyl)phenyl)((6S,10R)-2-methyl-4-(1H-pyrazol-5-yl)-5,6,7,8,9,10-hexahydro-6,10-epiminocycloocta[d]pyrimidin-11-yl)methanone], the remaining activity at 10 µM in assay [1] is -3%. Further, the pIC50 in assay [3] is 7.91.
In the case of `Cc1nc(-c2ccn[nH]2)c2c(n1)C1CCCC(C2)N1C(=O)c1cccc(C(F)(F)F)c1Cl` (centres unmarked) [Example 2, (2-chloro-3-(trifluoromethyl)phenyl)(2-methyl-4-(1H-pyrazol-5-yl)-5,6,7,8,9,10-hexahydro-6,10-epiminocycloocta[d]pyrimidin-11-yl)methanone], in assay [1], the remaining activity at 10 µM was found to be 1.1%.
With `Cc1nc(-c2ccn[nH]2)c2c(n1)[C@H]1CCC[C@@H](C2)N1C(=O)c1cccc(C(F)(F)F)c1F` [Example 26, (2-fluoro-3-(trifluoromethyl)phenyl)((6S,10R)-2-methyl-4-(1H-pyrazol-5-yl)-5,6,7,8,9,10-hexahydro-6,10-epiminocycloocta[d]pyrimidin-11-yl)methanone], the remaining activity at 10 µM in assay [1] is -3.8%. For the same compound, the pIC50 in assay [3] was 7.38.
The corresponding values for `Cc1nc(-c2cnccn2)c2c(n1)[C@H]1CCC[C@@H](C2)N1C(=O)c1cccc(Cl)c1Cl` [Example 48, (2,3-dichlorophenyl)((6S,10R)-2-methyl-4-(pyrazin-2-yl)-5,6,7,8,9,10-hexahydro-6,10-epiminocycloocta[d]pyrimidin-11-yl)methanone] are -4.3% and 7.27.
